Assay results reported in paper PMC7343282, “Tissue Distribution of Several Series of Cationic Surfactants in Rainbow Trout (Oncorhynchus mykiss) Following Exposure via Water” (Environmental Science & Technology, 2020).

How the values were obtained:
[1] = tested on: rainbow trout (Oncorhynchus mykiss); assay: Surface area-normalized mucus-water and gill-water distribution coefficients; conditions: for Gill-water distribution coefficient (DG-W): from average concentrations in gills and water, calculated gill surface; for Mucus-water distribution coefficient (DMuc-W): from average concentrations in mucus and water
Method: For each mixture, the syringe pump was started in an aquarium containing no fish. After 16 h, to allow the concentrations to stabilize, 12 rainbow trout were added. After 7 d of exposure, the fish in the exposure aquaria as well as several unexposed (control) fish were sacrificed. Following stunning, blood was collected with a heparinized syringe from the caudal vein into a 2 mL Eppendorf tube. The fish were weighed and photographed, and the length was measured. The outer surface area of the fish was estimated from the fish weight according to O’Shea et al.[27] [drawing 1] 1
The gill surface area was estimated from the fish weight according to the equation specific for O. mykiss from a report by Hughes,[28] taken from ref ([29]) [drawing 2] 2
Because the mass of extracted mucus was not determined, the concentrations in mucus were normalized to the estimated fish’s total surface area (eq 1) excluding the head, which was not rinsed.
Surface area-normalized gill–water distribution coefficients (DG–W) were calculated from the average concentrations measured in gills and water, and a calculated gill surface based on rainbow trout specific scaling factors (eq 2). […] Unlike the skin, the gills were not rinsed with methanol, so the gill samples included gill mucus.

[2] = tested on: rainbow trout (Oncorhynchus mykiss); assay: Apparent bioconcentration factor at end of 7-day exposure; assay type: in vivo; conditions: end of 7-day exposure, body burden including mucus
Method: Apparent BCFs (BCFapp) at the end of the 7-day exposure were calculated by dividing the surfactant body burden (including mucus) by the fish mass, and dividing this by the average measured concentration in water samples taken during the exposure phase. The BCFapp values ranged from 0.1 to 1260 (Table S18). Given the short exposure period, it is possible that the fish in this study had not approached steady state, in particular with respect to the distribution between water and internal tissues and between water and skin, and that the steady-state BCFs are higher. […] We note that some improvements in the methodology would be helpful, particularly with respect to the stability of the aqueous exposure concentration of the longest chain surfactants. Working with mixtures of analogue cationic surfactants allowed for consistent evaluation of differences in accumulation trends due to structural features.

[3] = Membrane-water partition/distribution coefficient; conditions: extrapolated from data of Timmer and Droge (2017)
[4] = tested on: rainbow trout (Oncorhynchus mykiss); assay: Tissue concentrations in rainbow trout after 7 d exposure via water (two mixtures); assay type: in vivo
Method: (§1) The study was conducted with rainbow trout (Oncorhynchus mykiss) weighing between 98 and 165 g. The fish were purchased from Nordic trout Sweden AB and held in the aquaria facility prior to the experiment in February 2018. Ethical approval for the experiments was obtained from Stockholms djurförsöksetiska nämnd (decision 9967-2017). The experiments were conducted in 300 L fiberglass aquaria with a water renewal rate of 1.3 L min^–1 (MIX 1) and 1.45 L min^–1 (MIX 2). The water temperature was 10 °C and the pH 7.5. The water hardness was estimated to be 1.1 mM Ca^2+ based on information from the water supplier. The aquaria water was circulated through a filter of polyester wool at 800–1200 L h^–1 with an Eheim 2273 Pro 4+ pump. The outflow from the filter pump was placed above the water surface, providing for aeration. The lighting was dim and programmed on a 12 h light/12 h dark cycle. The fish were fed fish food pellets supplied by the fish farm at 1.0% of their body weight per day.
(§2) A solution of the test chemical mixture in methanol was infused continuously (3.5 and 3.8 μL min^–1 for MIX 1 and MIX 2, respectively) into the water inflow using a syringe pump. The intended concentrations of the chemicals in water ranged from 2.5 to 50 μg L^–1 (Table 1). They were selected with the help of modeled estimates of the BCF that were based on reported and extrapolated membrane water partition coefficients[7] and biotransformation rate constants predicted with quantitative structure activity relationships (QSARs)[24],[25] to parameterize the BIONIC model.[26] Based on these estimates, we selected an exposure concentration which would result in concentrations in fish that were clearly above the limit of quantification (LOQ) of the analytical method, while trying to keep the quantifiable exposure concentration as low as possible to minimize the risk of toxic effects and micelle formation (see comparison of intended concentrations with available toxicological data in Table S4).
(§3) The surface of the fish posterior of the gills was rinsed with 100% methanol to remove test chemical residues adsorbed to the outer surface of the skin and absorbed in the skin mucus. […] The fish were dissected and the liver, the kidney, the gills, and the remaining contents of the abdominal cavity were taken and weighed. Skin and muscle samples were prepared from the upper dorsal region on semi-frozen fish after the methanol rinse had removed the mucus. The main part of the subcutaneous fat tissue was included in the muscle samples rather than in the skin samples. All samples were stored frozen at −20 °C until further analysis.
(§4) For 6 fish from each aquarium and 3 control fish, samples of muscle, skin, liver, and gills were homogenized in a bullet blender (muscle and liver) (MiniG, SPEXsamplePrep) or in a cryo-mill (skin and gill) (Mixer mill cryomill, Retsch GmbH). A sub-sample of 0.5–1.2 g of the homogenate was extracted twice in methanol (4 mL, 50 °C, ultra-sound, 60 min), employing centrifugation at 4000 rpm for phase separation. Further information on the extraction efficiency of this method can be found in the Supporting Information (Table S5 and accompanying text). Isotope labeled standards of Q10 (D21), Q14 (D29), and P16 (D33) were added to a portion of the extract corresponding to 12–75 mg of the sample. The extract volume was adjusted to 3 mL with methanol and then cleaned up on a weak cationic exchange SPE column (WCX, 60 mg, 30 μm particle size, waters). Solvent elution was performed by gravity flow. The column was conditioned with 2 mL of methanol, followed by 2 mL of Milli-Q water adjusted to pH 7 with ammonium hydroxide to activate the ion exchange. The sample extract was loaded onto the column, and it was subsequently rinsed with 20 mL of methanol.

[5] = as above; assay type: in vivo, Oncorhynchus mykiss; conditions: rainbow trout (Oncorhynchus mykiss), in vivo
Method: as §1, §2, §3, §4

[6] = rainbow trout (Oncorhynchus mykiss), in vivo, 7 d
[7] = rainbow trout (Oncorhynchus mykiss), in vivo, 7 d, pH 7.5
[8] = pH 7.5, Concentration in muscle
[9] = mean of exposed fish, Table S13
[10] = mean of exposed fish, Table S14
[11] = wet weight, mean of six fish (RSD %), 7 d exposure, Q10, Q14 below LOQ

In the case of CCCCCCCCCCCCCN [P13, tridecylamine], the “Gill-water distribution coefficient (DG-W)” value [1] is reported as 62 mLcm-2, the “Mucus-water distribution coefficient (DMuc-W)” value [1] is reported as 25 mL cm-2 and the “Apparent bioconcentration factor (BCFapp)” value [2] is reported as 490 L kg-1 wet weight. The “Log KMW,C (membrane-water partition coefficient of the charged form), extrapolated” value (shortened to “Log KMW,C”) [3] was 6.16, the Concentration in gills [4, 6] was 17 800 (12) ng g^–1 and the “Concentration in liver” value [4, 6] was 50 000 (26) ng g^–1. For the same compound, the “Concentration in skin” value [4, 6] was 2400 (19) ng g^–1, the “Concentration in blood” value [4, 7] was 540 (12) ng g^–1 and the “Concentration in muscle” value [4, 7] was 530 (16) ng g^–1. The “Concentration in skin, per surface area” value [4, 7] was 195 ng cm-2, the concentration at 7 d ([5]; Concentration in skin) was 2160 ng/g and the concentration at 7 d ([5]; pH 7.5, Concentration in blood) was 495 ng/g. It also gave a concentration at 7 d ([5]; pH 7.5, Concentration in gills) of 16000 ng/g, a concentration at 7 d [5, 8] of 451 ng/g and a concentration at 7 d ([5]; pH 7.5, Concentration in skin) of 2040 ng/g.

With CCCCCCCCCCCCCCCCN [P16, hexadecylamine] the “Log KMW,C” value [3] was 7.90, the Concentration in gills [4, 6] was 8700 (15) ng g^–1 and the “Concentration in liver” value [4, 6] was 5500 (10) ng g^–1. For the same compound, the “Concentration in skin” value [4, 6] was 420 (25) ng g^–1, the “Concentration in blood” value [4, 7] was 130 (19) ng g^–1 and the “Concentration in muscle” value [4, 7] was 111 (22) ng g^–1. The “Concentration in skin, per surface area” value [4, 7] was 30 ng cm-2, the concentration at 7 d ([5]; Concentration in skin) was 415 ng/g and the concentration at 7 d ([5]; pH 7.5, Concentration in blood) was 119 ng/g. It also gave a concentration at 7 d ([5]; pH 7.5, Concentration in gills) of 7960 ng/g, a concentration at 7 d ([5]; pH 7.5, Concentration in liver) of 5450 ng/g and a concentration at 7 d [5, 8] of 90 ng/g. The concentration at 7 d ([5]; pH 7.5, Concentration in skin) was 364 ng/g.

For CCCCCCCCCCCCCN(C)C [T13, N,N-dimethyltridecylamine], the “Gill-water distribution coefficient (DG-W)” value [1] was 58 mLcm-2, the “Mucus-water distribution coefficient (DMuc-W)” value [1] was 22 mL cm-2 and the “Apparent bioconcentration factor (BCFapp)” value [2] was 510 L kg-1 wet weight. The “Log KMW,C” value [3] was 5.88, the Concentration in blood ([4]; exposed fish #1) was 890 ng/g and the Concentration in gills ([4]; exposed fish #1) was 9077 ng/g. For the same compound, the “Concentration in gills, surface area-normalized” value ([4]; exposed fish #1) was 140 ng cm-2, the Concentration in liver ([4]; exposed fish #1) was 6570 ng/g and the Concentration in mucus ([4]; exposed fish #1) was 57 ng cm-2. For the same compound, the Concentration in muscle ([4]; exposed fish #1) was 580 ng/g, the Concentration in skin ([4]; exposed fish #1) was 1879 ng/g and the “Concentration in skin, per surface area” value ([4]; exposed fish #1) was 89 ng cm-2. For the same compound, the Concentration in blood ([4]; exposed fish #2) was 816 ng/g, the Concentration in gills ([4]; exposed fish #2) was 9391 ng/g and the “Concentration in gills, surface area-normalized” value ([4]; exposed fish #2) was 150 ng cm-2. The Concentration in liver ([4]; exposed fish #2) was 8202 ng/g, the Concentration in mucus ([4]; exposed fish #2) was 59 ng cm-2 and the Concentration in muscle ([4]; exposed fish #2) was 593 ng/g. The Concentration in skin ([4]; exposed fish #2) was 1877 ng/g, the “Concentration in skin, per surface area” value ([4]; exposed fish #2) was 160 ng cm-2 and the Concentration in blood ([4]; exposed fish #3) was 1018 ng/g. It also gave a Concentration in liver ([4]; exposed fish #3) of 13696 ng/g, a Concentration in mucus ([4]; exposed fish #3) of 52 ng cm-2 and a Concentration in muscle ([4]; exposed fish #3) of 601 ng/g. The Concentration in skin ([4]; exposed fish #3) was 2115 ng/g, the “Concentration in skin, per surface area” value ([4]; exposed fish #3) was 150 ng cm-2 and the Concentration in blood ([4]; exposed fish #4) was 858 ng/g. The Concentration in gills ([4]; exposed fish #4) was 9586 ng/g, the “Concentration in gills, surface area-normalized” value ([4]; exposed fish #4) was 178 ng cm-2 and the Concentration in liver ([4]; exposed fish #4) was 20532 ng/g. For the same compound, the Concentration in mucus ([4]; exposed fish #4) was 63 ng cm-2, the Concentration in muscle ([4]; exposed fish #4) was 882 ng/g and the Concentration in skin ([4]; exposed fish #4) was 2718 ng/g. The “Concentration in skin, per surface area” value ([4]; exposed fish #4) was 154 ng cm-2, the Concentration in blood ([4]; exposed fish #5) was 795 ng/g and the Concentration in gills ([4]; exposed fish #5) was 11785 ng/g. For the same compound, the “Concentration in gills, surface area-normalized” value ([4]; exposed fish #5) was 209 ng cm-2, the Concentration in liver ([4]; exposed fish #5) was 12097 ng/g and the Concentration in mucus ([4]; exposed fish #5) was 70 ng cm-2. For the same compound, the Concentration in muscle ([4]; exposed fish #5) was 767 ng/g, the Concentration in skin ([4]; exposed fish #5) was 1738 ng/g and the “Concentration in skin, per surface area” value ([4]; exposed fish #5) was 154 ng cm-2. For the same compound, the Concentration in blood ([4]; exposed fish #6) was 1205 ng/g, the Concentration in gills ([4]; exposed fish #6) was 11130 ng/g and the “Concentration in gills, surface area-normalized” value ([4]; exposed fish #6) was 148 ng cm-2. For the same compound, the Concentration in liver ([4]; exposed fish #6) was 9499 ng/g, the Concentration in mucus ([4]; exposed fish #6) was 70 ng cm-2 and the Concentration in muscle ([4]; exposed fish #6) was 606 ng/g. The Concentration in skin ([4]; exposed fish #6) was 2209 ng/g, the “Concentration in skin, per surface area” value ([4]; exposed fish #6) was 162 ng cm-2 and the Concentration in blood ([4]; mean of exposed fish, Table S10) was 930 ng/g. For the same compound, the Concentration in muscle ([4]; mean of exposed fish, Table S11) was 672 ng/g, the Concentration in liver ([4]; mean of exposed fish, Table S12) was 11766 ng/g and the Concentration in gills [4, 9] was 10194 ng/g. For the same compound, the “Concentration in gills, surface area-normalized” value [4, 9] was 165 ng cm-2, the Concentration in skin [4, 10] was 2089 ng/g and the “Concentration in skin, per surface area” value [4, 10] was 145 ng cm-2. The Concentration in mucus ([4]; mean of exposed fish, Table S15) was 62 ng cm-2, the Concentration in mucus ([4]; methanol rinse normalized to fish surface area, mean of six fish (RSD %)) was 62 (9) ng cm^–2 and the “Concentration in blood” value ([4]; wet weight, mean of six fish (RSD % in brackets), 7 d exposure, Q10 below LOQ) was 930 (17) ng g^–1. The “Concentration in muscle” value [4, 11] was 670 (19) ng g^–1 and the “Concentration in skin” value [4, 11] was 2100 (17) ng g^–1.
